Test results reported in article PMC7053198 (Theranostics, 2020).

System: A375Pβ6 cells
Settings: A375Pβ6, αvβ6 positive; 72 h treatment, MTT assay; ±SD, n=3

COc1cc2c(cc1OCCCCCOc1cc3c(cc1OC)C(=O)N1C=C(C)C[C@H]1C=N3)N=C[C@@H]1CC(C)=CN1C2=O [SG3199, reference compound]
IC50: 0.11 ± 0.08 nM
